Measurements taken from US9920050B2, “Fused heterocyclic compound and pest control use thereof” (Sumitomo Chemical Company, Limited, priority 2013, dated 2018).

How the values were obtained:
Assay type in all cases: in vivo
[1] = tested on: Musca domestica; test: Test Example 8: treated filter paper with sucrose bait, Musca domestica; conditions: 500 ppm, 0.7 ml on filter paper, female imagoes, after 24 hours
Method: The formulations of Compounds of Present Invention 1, 9, 15 to 16, 19, 22, 24, 31 to 32, 34, 41 and 45 to 46 as produced in Formulation Example 5 were diluted with water, so as to have a concentration of the active ingredient of 500 ppm, to prepare each test drug solution.
(§1) A filter paper having a diameter of 5.5 cm was spread on the bottom of a polyethylene cup having the same diameter and 0.7 ml of the test drug solution was added dropwise onto the filter paper, and 30 mg of sucrose was uniformly placed as bait. Into the polyethylene cup, 10 female imagoes of Musca domestica were released, and the cup was sealed with a lid. After 24 hours, the life and death of Musca domestica was examined, the number of dead insects was counted, and the death rate was calculated according to the following equation. Death rate (%)=(Number of dead insects/Number of tested insects)×100

[2] = tested on: Blattella germanica; test: Test Example 9: treated filter paper with sucrose bait, Blattella germanica; conditions: 500 ppm, 0.7 ml on filter paper, male imagoes, after 6 days
Method: The formulations of Compounds of Present Invention 9, 15 to 16, 19, 22, 30 to 32, 34, 41 and 45 to 46 as produced in Formulation Example 5 were diluted with water, so as to have a concentration of the active ingredient of 500 ppm, to prepare each test drug solution.
as §1, with “2 male” for “10 female”, “Blattella germanica” for “Musca domestica”, “6 days,” for “24 hours,”

[3] = tested on: Haemaphysalis longicornis; test: Test Example 11: coated screw tube contact test, Haemaphysalis longicornis ticks; conditions: 2 mg compound coated on inner wall of screw tube, unfed nymphal ticks, after 2 days
Method: Two milligrams of each of Compounds of Present Invention 8 to 9, 20, 22 and 31 to 32 was weighed out in a screw tube (Maruemu No. 5; 27×55 mm), and 0.2 mL of acetone was added thereto, and the screw tube was sealed with a cap to dissolve the compound. The screw tube was rotated and inverted to uniformly coat the drug solution onto the whole inner wall of the tube. After removing the cap, the solution was air-dried for about 2 hours, then unfed nymphal ticks, Haemaphysalis longicornis (5 ticks/group) were released, and the tube was sealed with the cap. After 2 days, the number of dead insects was counted, and the death rate was calculated according to the following equation: Death rate (%)=100×(Number of dead insects/Number of tested insects)

| SMILES | death rate [1] | death rate [2] | death rate [3] |
| --- | --- | --- | --- |
| CCS(=O)(=O)c1cc(NC(=O)c2ccccn2)cnc1-c1nc2cc(C(F)(F)F)cnc2n1C [compound 24] | 100% | – | – |
| CCS(=O)(=O)c1ccc(NOC)nc1-c1nc2cc(C(F)(F)F)cnc2n1C [compound 30] | – | 100% | – |
| CCS(CC)=Nc1ccc(S(=O)(=O)CC)c(-c2nc3cc([S+]([O-])C(F)(F)F)ccc3o2)n1 (stereo not drawn) [compound 41] | 100% | 100% | – |
| CCS(=O)(=O)c1cc(NC2CC2)cnc1-c1nc2cc(C(F)(F)F)cnc2n1C [compound 9] | 100% | 100% | 100% |
| CCS(=O)(=O)c1cc(NC(=O)C2CC2)cnc1-c1nc2cc(C(F)(F)F)cnc2n1C [compound 22] | 100% | 100% | 100% |
| CCS(=O)(=O)c1ccc(NC2CC2)nc1-c1nc2cc(C(F)(F)F)cnc2n1C [compound 31] | 100% | – | 100% |
| CCS(=O)(=O)c1ccc(NCc2ccccc2)nc1-c1nc2cc([S+]([O-])C(F)(F)F)ccc2o1 (stereo not drawn) [compound 34] | 100% | 100% | – |
| CCS(=O)(=O)c1ccc(NC(=O)C2CC2)nc1-c1nc2cc([S+]([O-])C(F)(F)F)ccc2o1 (stereo not drawn) [compound 45] | 100% | 100% | – |
| CCS(=O)(=O)c1cc(NC(=O)OCc2ccccc2)cnc1-c1nc2cc(C(F)(F)F)cnc2n1C [compound 1] | 100% | – | – |
| CCS(=O)(=O)c1cc(NN)cnc1-c1nc2cc(C(F)(F)F)cnc2n1C [compound 19] | 100% | 100% | – |
| CCS(=O)(=O)c1ccc(NCc2ccc(Cl)nc2)nc1-c1nc2cc([S+]([O-])C(F)(F)F)ccc2o1 (stereo not drawn) [compound 46] | 100% | 100% | – |
| CCS(=O)(=O)c1ccc(NC2CC2)nc1-c1nc2cc([S+]([O-])C(F)(F)F)ccc2o1 (stereo not drawn) [compound 32] | 100% | 100% | 100% |
| CCS(=O)(=O)c1cc(NNC(=O)OC)cnc1-c1nc2cc(C(F)(F)F)cnc2n1C [compound 15] | 100% | 100% | – |
| CCS(=O)(=O)c1cc(NCC2CCOC2)cnc1-c1nc2cc(C(F)(F)F)cnc2n1C (stereo not drawn) [compound 20] | – | – | 100% |
| CCS(=O)(=O)c1cc(NC(=O)C2CCC2)cnc1-c1nc2cc(C(F)(F)F)cnc2n1C [compound 8] | – | – | 100% |
| CCS(=O)(=O)c1cc(NC(=O)C(=O)N(C)C)cnc1-c1nc2cc(C(F)(F)F)cnc2n1C [compound 16] | 100% | 100% | – |
